Consider 33 compounds from ChEMBL document CHEMBL1135136, “Carbonic anhydrase inhibitors. Preparation of potent sulfonamides inhibitors incorporating bile acid tails” (Bioorg Med Chem Lett, 2002).

One test deals with Carbonic anhydrase 1 (Homo sapiens, UniProt P00915).
The next test concerns the target Carbonic anhydrase 2 (Homo sapiens, UniProt P00918).
The target of the next test is T1, Carbonic anhydrase 4 (Bos taurus, UniProt Q95323).
T1 sequence (Q95323 whole entry): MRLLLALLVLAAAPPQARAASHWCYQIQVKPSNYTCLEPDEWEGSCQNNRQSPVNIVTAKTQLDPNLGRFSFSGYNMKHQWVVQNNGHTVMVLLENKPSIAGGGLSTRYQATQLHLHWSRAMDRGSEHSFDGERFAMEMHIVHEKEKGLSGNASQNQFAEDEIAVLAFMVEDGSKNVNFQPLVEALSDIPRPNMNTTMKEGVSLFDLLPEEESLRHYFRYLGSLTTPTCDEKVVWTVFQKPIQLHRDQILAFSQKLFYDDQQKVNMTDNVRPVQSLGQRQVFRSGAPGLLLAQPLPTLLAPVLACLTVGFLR

Chain of Carbonic anhydrase 1 (P00915 whole entry): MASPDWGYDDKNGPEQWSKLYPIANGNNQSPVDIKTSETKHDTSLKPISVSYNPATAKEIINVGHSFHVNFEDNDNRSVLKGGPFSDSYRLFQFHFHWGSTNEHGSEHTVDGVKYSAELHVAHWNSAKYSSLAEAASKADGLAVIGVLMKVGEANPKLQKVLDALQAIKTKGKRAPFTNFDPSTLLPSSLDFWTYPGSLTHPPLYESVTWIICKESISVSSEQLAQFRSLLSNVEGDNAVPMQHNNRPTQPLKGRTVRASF
Description for Carbonic anhydrase 1: Inhibitory activity against human recombinant carbonic anhydrase I (CA1)
Description for Carbonic anhydrase 2: Inhibitory activity against human recombinant carbonic anhydrase II (CA2)
Description for Carbonic anhydrase 4: Inhibitory activity against bovine carbonic anhydrase IV (CA4), obtained from bovine lung microsomes

For the compound `C[C@H](CCC(=O)Nc1ccc(S(N)(=O)=O)cc1I)[C@H]1CC[C@H]2[C@@H]3CC[C@@H]4C[C@H](O)CC[C@]4(C)[C@H]3C[C@H](O)[C@]12C`, the inhibition constant (Ki) at Carbonic anhydrase 1 worked out at 415 nM; at Carbonic anhydrase 2 it was 47 nM; at Carbonic anhydrase 4 it was 110 nM.
The like results for `C[C@H](CCC(=O)NCCC(=O)Nc1nnc(S(N)(=O)=O)s1)[C@H]1CC[C@H]2[C@@H]3CC[C@@H]4C[C@H](O)CC[C@]4(C)[C@H]3C[C@H](O)[C@]12C` were, in that order, 200 nM, 2.1 nM and 30 nM.
For `C[C@H](CCC(=O)NCCC(=O)Nc1nnc(S(N)(=O)=O)s1)[C@H]1CC[C@H]2[C@@H]3[C@H](O)C[C@@H]4C[C@H](O)CC[C@]4(C)[C@H]3C[C@H](O)[C@]12C` the same measures were 250 nM, 1.2 nM and 31 nM.
For `C[C@H](CCC(=O)Nc1ccc(S(N)(=O)=O)cc1Cl)[C@H]1CC[C@H]2[C@@H]3CC[C@@H]4C[C@H](O)CC[C@]4(C)[C@H]3C[C@H](O)[C@]12C` the same measures were 890 nM, 77 nM and 151 nM.
Regarding `C[C@H](CCC(=O)NCCC(=O)Nc1nnc(S(N)(=O)=O)s1)[C@H]1CC[C@H]2[C@@H]3CC[C@@H]4C[C@H](O)CC[C@]4(C)[C@H]3CC[C@]12C`, the Ki on Carbonic anhydrase 1 came to 200 nM; at Carbonic anhydrase 2, 2.1 nM; on Carbonic anhydrase 4, 19 nM.
Take `C[C@H](CCC(=O)NNc1ccc(S(N)(=O)=O)cc1)[C@H]1CC[C@H]2[C@@H]3[C@@H](O)C[C@@H]4C[C@H](O)CC[C@]4(C)[C@H]3CC[C@]12C`: the inhibition constant (Ki) turned out to be 12000 nM at Carbonic anhydrase 1, 240 nM at Carbonic anhydrase 2 and 615 nM at Carbonic anhydrase 4.
For `C[C@H](CCC(=O)OCc1ccc(S(N)(=O)=O)cc1)[C@H]1CC[C@H]2[C@@H]3CC[C@@H]4C[C@H](O)CC[C@]4(C)[C@H]3C[C@H](O)[C@]12C` the same measures were 1000 nM, 106 nM and 350 nM.
The like results for `C[C@H](CCC(=O)Nc1ccc2nc(S(N)(=O)=O)sc2c1)[C@H]1CC[C@H]2[C@@H]3[C@H](O)C[C@@H]4C[C@H](O)CC[C@]4(C)[C@H]3C[C@H](O)[C@]12C` were, in that order, 35 nM, 5 nM and 10 nM.
The like results for `C[C@H](CCC(=O)Nc1ccc(S(N)(=O)=O)cc1Cl)[C@H]1CC[C@H]2[C@@H]3[C@H](O)C[C@@H]4C[C@H](O)CC[C@]4(C)[C@H]3CC[C@]12C` were, in that order, 950 nM, 80 nM and 150 nM.
With `C[C@H](CCC(=O)Nc1ccc2nc(S(N)(=O)=O)sc2c1)[C@H]1CC[C@H]2[C@@H]3CC[C@@H]4C[C@H](O)CC[C@]4(C)[C@H]3C[C@H](O)[C@]12C`, the Ki on Carbonic anhydrase 1 turned out to be 56 nM; at Carbonic anhydrase 2, 6.5 nM; at Carbonic anhydrase 4, 12 nM.
On to `C[C@H](CCC(=O)OCCOc1ccc2nc(S(N)(=O)=O)sc2c1)[C@H]1CC[C@H]2[C@@H]3[C@H](O)C[C@@H]4C[C@H](O)CC[C@]4(C)[C@H]3CC[C@]12C`, for which the inhibitory constant (Ki) at Carbonic anhydrase 1 is 44 nM; at Carbonic anhydrase 2, 5.2 nM; at Carbonic anhydrase 4 it was 9 nM.
Regarding `C[C@H](CCC(=O)NCCc1ccc(S(N)(=O)=O)cc1)[C@H]1CC[C@H]2[C@@H]3[C@H](O)C[C@@H]4C[C@H](O)CC[C@]4(C)[C@H]3CC[C@]12C`, the Ki at Carbonic anhydrase 1 was 3300 nM; on Carbonic anhydrase 2, 86 nM; at Carbonic anhydrase 4, 235 nM.
For `C[C@H](CCC(=O)/N=c1\sc(S(N)(=O)=O)nn1C)[C@H]1CC[C@H]2[C@@H]3[C@@H](O)C[C@@H]4C[C@H](O)CC[C@]4(C)[C@H]3CC[C@]12C` the same measures were 54 nM, 2 nM and 17 nM.
For `C[C@H](CCC(=O)OCc1ccc(S(N)(=O)=O)cc1)[C@H]1CC[C@H]2[C@@H]3[C@H](O)C[C@@H]4C[C@H](O)CC[C@]4(C)[C@H]3C[C@H](O)[C@]12C` the same measures were 1200 nM, 97 nM and 280 nM.
The like results for `C[C@H](CCC(=O)OCCOc1ccc2nc(S(N)(=O)=O)sc2c1)[C@H]1CC[C@H]2[C@@H]3CC[C@@H]4C[C@H](O)CC[C@]4(C)[C@H]3CC[C@]12C` were, in that order, 36 nM, 1.4 nM and 8 nM.
On to `C[C@H](CCC(=O)OCCOc1ccc2nc(S(N)(=O)=O)sc2c1)[C@H]1CC[C@H]2[C@@H]3C(=O)C[C@@H]4CC(=O)CC[C@]4(C)[C@H]3CC(=O)[C@]12C`, for which the Ki at Carbonic anhydrase 1 is 30 nM; on Carbonic anhydrase 2, 0.8 nM; at Carbonic anhydrase 4 it was 6 nM.
For `C[C@H](CCC(=O)OCCOc1ccc2nc(S(N)(=O)=O)sc2c1)[C@H]1CC[C@H]2[C@@H]3CC[C@@H]4C[C@H](O)CC[C@]4(C)[C@H]3C[C@H](O)[C@]12C` the same measures were 37 nM, 4.1 nM and 8 nM.
`C[C@H](CCC(=O)Nc1cc(Cl)c(S(N)(=O)=O)cc1S(N)(=O)=O)[C@H]1CC[C@H]2[C@@H]3[C@@H](O)C[C@@H]4C[C@H](O)CC[C@]4(C)[C@H]3CC[C@]12C`: the inhibition constant (Ki) at Carbonic anhydrase 1 came to 71 nM; on Carbonic anhydrase 2, 9 nM; at Carbonic anhydrase 4, 46 nM.
As to `C[C@H](CCC(=O)OCc1ccc(S(N)(=O)=O)cc1)[C@H]1CC[C@H]2[C@@H]3[C@H](O)C[C@@H]4C[C@H](O)CC[C@]4(C)[C@H]3CC[C@]12C`, the results for the inhibition constant Ki on Carbonic anhydrase 1, on Carbonic anhydrase 2 and on Carbonic anhydrase 4 were 1230 nM, 98 nM and 340 nM, respectively.
For `C[C@H](CCC(=O)Nc1nnc(S(N)(=O)=O)s1)[C@H]1CC[C@H]2[C@@H]3CC[C@@H]4C[C@H](O)CC[C@]4(C)[C@H]3C[C@H](O)[C@]12C` the same measures were 200 nM, 50 nM and 130 nM.
The like results for `C[C@H](CCC(=O)OCCOc1ccc2nc(S(N)(=O)=O)sc2c1)[C@H]1CC[C@H]2[C@@H]3[C@@H](O)C[C@@H]4C[C@H](O)CC[C@]4(C)[C@H]3CC[C@]12C` were, in that order, 30 nM, 0.6 nM and 5 nM.
As to `C[C@H](CCC(=O)Nc1c(S(N)(=O)=O)cc(S(N)(=O)=O)c(Cl)c1Cl)[C@H]1CC[C@H]2[C@@H]3[C@H](O)C[C@@H]4C[C@H](O)CC[C@]4(C)[C@H]3CC[C@]12C`, the Ki was 343 nM on Carbonic anhydrase 1, 21 nM at Carbonic anhydrase 2 and 95 nM on Carbonic anhydrase 4.
The like results for `C[C@H](CCC(=O)Nc1cccc(S(N)(=O)=O)c1)[C@H]1CC[C@H]2[C@@H]3C(=O)C[C@@H]4CC(=O)CC[C@]4(C)[C@H]3CC(=O)[C@]12C` were, in that order, 7440 nM, 156 nM and 440 nM.
For `C[C@H](CCC(=O)Nc1ccccc1S(N)(=O)=O)[C@H]1CC[C@H]2[C@@H]3CC[C@@H]4C[C@H](O)CC[C@]4(C)[C@H]3CC[C@]12C` the same measures were 9200 nM, 270 nM and 750 nM.
For `C[C@H](CCC(=O)NCc1ccc(S(N)(=O)=O)cc1)[C@H]1CC[C@H]2[C@@H]3CC[C@@H]4C[C@H](O)CC[C@]4(C)[C@H]3CC[C@]12C` the same measures were 910 nM, 48 nM and 83 nM.
`C[C@H](CCC(=O)Nc1ccc(S(N)(=O)=O)cc1I)[C@H]1CC[C@H]2[C@@H]3[C@@H](O)C[C@@H]4C[C@H](O)CC[C@]4(C)[C@H]3CC[C@]12C`: the Ki was 67 nM at Carbonic anhydrase 1, 13 nM on Carbonic anhydrase 2 and 20 nM at Carbonic anhydrase 4.
With `C[C@H](CCC(=O)Nc1nnc(S(N)(=O)=O)s1)[C@H]1CC[C@H]2[C@@H]3[C@@H](O)C[C@@H]4C[C@H](O)CC[C@]4(C)[C@H]3CC[C@]12C`, the Ki at Carbonic anhydrase 1 came to 48 nM; at Carbonic anhydrase 2, 0.9 nM; on Carbonic anhydrase 4, 16 nM.
For `C[C@H](CCC(=O)Nc1cccc(S(N)(=O)=O)c1)[C@H]1CC[C@H]2[C@@H]3CC[C@@H]4C[C@H](O)CC[C@]4(C)[C@H]3CC[C@]12C` the same measures were 9500 nM, 210 nM and 740 nM.
For `C[C@H](CCC(=O)NCc1ccc(S(N)(=O)=O)cc1)[C@H]1CC[C@H]2[C@@H]3CC[C@@H]4C[C@H](O)CC[C@]4(C)[C@H]3C[C@H](O)[C@]12C` the same measures were 1710 nM, 80 nM and 233 nM.
For `C[C@H](CCC(=O)Nc1ccc(S(N)(=O)=O)cc1F)[C@H]1CC[C@H]2[C@@H]3CC[C@@H]4C[C@H](O)CC[C@]4(C)[C@H]3C[C@H](O)[C@]12C` the same measures were 780 nM, 42 nM and 96 nM.
On to `C[C@H](CCC(=O)OCc1ccc(S(N)(=O)=O)cc1)[C@H]1CC[C@H]2[C@@H]3C(=O)C[C@@H]4CC(=O)CC[C@]4(C)[C@H]3CC(=O)[C@]12C`, for which the inhibition constant (Ki) on Carbonic anhydrase 1 worked out at 450 nM; on Carbonic anhydrase 2 it was 71 nM; on Carbonic anhydrase 4 it was 200 nM.
For `C[C@H](CCC(=O)NNc1ccc(S(N)(=O)=O)cc1)[C@H]1CC[C@H]2[C@@H]3CC[C@@H]4C[C@H](O)CC[C@]4(C)[C@H]3C[C@H](O)[C@]12C` the same measures were 21300 nM, 310 nM and 920 nM.
The like results for `C[C@H](CCC(=O)NCc1ccc(S(N)(=O)=O)cc1)[C@H]1CC[C@H]2[C@@H]3[C@H](O)C[C@@H]4C[C@H](O)CC[C@]4(C)[C@H]3C[C@H](O)[C@]12C` were, in that order, 3780 nM, 120 nM and 254 nM.
